# Test results published in PubChem BioAssay AID1963981 (Molecular Pharmacology Branch, DTP, NCI, 2024).
# Tested on: 354836-022-R-J1-PDC multicell spheroid viability
# Assay: Anticancer human tumor 354836-022-R-J1-PDC patient-derived head and neck squamous cell carcinoma cell line growth inhibition [PI3K]
# Conditions: for IC50: curve of first compound; for viability, T/C: stronger effect = lower value
# Method in brief: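 Targeted small molecules plus PI3K inhibitors, half-log dose series from Cmax (default top 10 microM), were applied to heterotypic spheroids of cancer cells with HUVEC and MSCs. Viability indicated growth inhibition.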
# [1] = second compound 0.0316 µM, first compound 0.0316 µM
# [2] = second compound 0.0316 µM, first compound 0.1 µM
# [3] = second compound 0.0316 µM, first compound 0.316 µM
# [4] = second compound 0.0316 µM, first compound 1 µM
# [5] = second compound 0.1 µM, first compound 0.0316 µM
# [6] = second compound 0.1 µM, first compound 0.1 µM
# [7] = second compound 0.1 µM, first compound 0.316 µM
# [8] = second compound 0.1 µM, first compound 1 µM
# [9] = second compound 0.316 µM, first compound 0.0316 µM
# [10] = second compound 0.316 µM, first compound 0.1 µM
# [11] = second compound 0.316 µM, first compound 0.316 µM
# [12] = second compound 0.316 µM, first compound 1 µM
# [13] = second compound 1 µM, first compound 0.0316 µM
# [14] = second compound 1 µM, first compound 0.1 µM
# [15] = second compound 1 µM, first compound 0.316 µM
# [16] = second compound 1 µM, first compound 1 µM
# [17] = second compound 3.16 µM, first compound 0.0316 µM
# [18] = second compound 3.16 µM, first compound 0.1 µM
# [19] = second compound 3.16 µM, first compound 0.316 µM
# [20] = second compound 3.16 µM, first compound 1 µM
# [21] = second compound 10 µM, first compound 0.0316 µM
# [22] = second compound 10 µM, first compound 0.1 µM
# [23] = second compound 10 µM, first compound 0.316 µM
# [24] = second compound 10 µM, first compound 1 µM
# [25] = second compound 0.0316 µM, first compound 0.00316 µM
# [26] = second compound 0.0316 µM, first compound 0.01 µM
# [27] = second compound 0.1 µM, first compound 0.00316 µM
# [28] = second compound 0.1 µM, first compound 0.01 µM
# [29] = second compound 0.316 µM, first compound 0.00316 µM
# [30] = second compound 0.316 µM, first compound 0.01 µM
# [31] = second compound 1 µM, first compound 0.00316 µM
# [32] = second compound 1 µM, first compound 0.01 µM
# [33] = second compound 3.16 µM, first compound 0.00316 µM
# [34] = second compound 3.16 µM, first compound 0.01 µM
# [35] = second compound 10 µM, first compound 0.00316 µM
# [36] = second compound 10 µM, first compound 0.01 µM
# 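Also: spheroids exposed to agents for seven days before the viability read.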
smiles,measurement,setting,value
CC(C)NCC(C(=O)N1CCN(c2ncnc3c2C(C)CC3O)CC1)c1ccc(Cl)cc1 (stereo unspecified) + Cc1nc(NC(=O)N2CCCC2C(N)=O)sc1-c1ccnc(C(C)(C)C(F)(F)F)c1,IC50,second compound 0.0316 µM,240 nM
same,IC50,second compound 0.1 µM,221 nM
same,IC50,second compound 0.316 µM,225 nM
same,IC50,second compound 1 µM,401 nM
same,IC50,second compound 3.16 µM,116 nM
same,IC50,second compound 10 µM,< 31.6 nM
same,"viability, T/C",[1],96%
same,"viability, T/C",[2],64.5%
same,"viability, T/C",[3],50.7%
same,"viability, T/C",[4],22.4%
same,"viability, T/C","second compound 0.0316 µM, first compound 3.16 µM",18.8%
same,"viability, T/C","second compound 0.0316 µM, first compound 10 µM",12.2%
same,"viability, T/C",[5],78.9%
same,"viability, T/C",[6],57.3%
same,"viability, T/C",[7],51.4%
same,"viability, T/C",[8],24%
same,"viability, T/C","second compound 0.1 µM, first compound 3.16 µM",17.5%
same,"viability, T/C","second compound 0.1 µM, first compound 10 µM",10.2%
same,"viability, T/C",[9],79.3%
same,"viability, T/C",[10],65%
same,"viability, T/C",[11],42%
same,"viability, T/C",[12],29%
same,"viability, T/C","second compound 0.316 µM, first compound 3.16 µM",16.8%
same,"viability, T/C","second compound 0.316 µM, first compound 10 µM",6.96%
same,"viability, T/C",[13],59.7%
same,"viability, T/C",[14],73.8%
same,"viability, T/C",[15],54.1%
same,"viability, T/C",[16],27.9%
same,"viability, T/C","second compound 1 µM, first compound 3.16 µM",18.5%
same,"viability, T/C","second compound 1 µM, first compound 10 µM",6.41%
same,"viability, T/C",[17],53.7%
same,"viability, T/C",[18],53.2%
same,"viability, T/C",[19],40.2%
same,"viability, T/C",[20],22.7%
same,"viability, T/C","second compound 3.16 µM, first compound 3.16 µM",13.2%
same,"viability, T/C","second compound 3.16 µM, first compound 10 µM",6.1%
same,"viability, T/C",[21],34.4%
same,"viability, T/C",[22],32%
same,"viability, T/C",[23],24.8%
same,"viability, T/C",[24],13.5%
same,"viability, T/C","second compound 10 µM, first compound 3.16 µM",8.39%
same,"viability, T/C","second compound 10 µM, first compound 10 µM",4.1%
CCN1CCN(Cc2ccc(Nc3ncc(F)c(-c4cc(F)c5nc(C)n(C(C)C)c5c4)n3)nc2)CC1 + Cc1nc(NC(=O)N2CCCC2C(N)=O)sc1-c1ccnc(C(C)(C)C(F)(F)F)c1,IC50,second compound 0.0316 µM,> 1000 nM
same,IC50,second compound 0.1 µM,> 1000 nM
same,IC50,second compound 0.316 µM,> 1000 nM
same,IC50,second compound 1 µM,455 nM
same,IC50,second compound 3.16 µM,322 nM
same,IC50,second compound 10 µM,< 3.16 nM
same,"viability, T/C",[25],107%
same,"viability, T/C",[26],82.5%
same,"viability, T/C",[1],97.9%
same,"viability, T/C",[2],90.9%
same,"viability, T/C",[3],99.7%
same,"viability, T/C",[4],62.8%
same,"viability, T/C",[27],94.4%
same,"viability, T/C",[28],82.5%
same,"viability, T/C",[5],91.5%
same,"viability, T/C",[6],77.7%
same,"viability, T/C",[7],91.8%
same,"viability, T/C",[8],69.1%
same,"viability, T/C",[29],87.6%
same,"viability, T/C",[30],96.4%
same,"viability, T/C",[9],69.5%
same,"viability, T/C",[10],92%
same,"viability, T/C",[11],84.2%
same,"viability, T/C",[12],51.1%
same,"viability, T/C",[31],67.9%
same,"viability, T/C",[32],90.8%
same,"viability, T/C",[13],63.2%
same,"viability, T/C",[14],67.8%
same,"viability, T/C",[15],59.5%
same,"viability, T/C",[16],33.3%
same,"viability, T/C",[33],51.9%
same,"viability, T/C",[34],61.8%
same,"viability, T/C",[17],54.4%
same,"viability, T/C",[18],59.3%
same,"viability, T/C",[19],49.8%
same,"viability, T/C",[20],18.8%
same,"viability, T/C",[35],31.8%
same,"viability, T/C",[36],36.6%
same,"viability, T/C",[21],35%
same,"viability, T/C",[22],28.9%
same,"viability, T/C",[23],25.2%
same,"viability, T/C",[24],9.14%
Cn1ncnc1[C@H]1c2n[nH]c(=O)c3cc(F)cc(c23)N[C@@H]1c1ccc(F)cc1 + Cc1nc(NC(=O)N2CCCC2C(N)=O)sc1-c1ccnc(C(C)(C)C(F)(F)F)c1,IC50,second compound 0.0316 µM,> 100 nM
same,IC50,second compound 0.1 µM,> 100 nM
same,IC50,second compound 0.316 µM,> 100 nM
same,IC50,second compound 1 µM,> 100 nM
same,IC50,second compound 3.16 µM,> 100 nM
same,IC50,second compound 10 µM,< 0.316 nM
same,"viability, T/C","second compound 0.0316 µM, first compound 0.000316 µM",115%
same,"viability, T/C","second compound 0.0316 µM, first compound 0.001 µM",90.7%
same,"viability, T/C",[25],107%
same,"viability, T/C",[26],98.4%
same,"viability, T/C",[1],105%
same,"viability, T/C",[2],88.3%
same,"viability, T/C","second compound 0.1 µM, first compound 0.000316 µM",93.6%
same,"viability, T/C","second compound 0.1 µM, first compound 0.001 µM",88.7%
same,"viability, T/C",[27],98%
same,"viability, T/C",[28],93%
same,"viability, T/C",[5],98.5%
same,"viability, T/C",[6],94%
same,"viability, T/C","second compound 0.316 µM, first compound 0.000316 µM",85%
same,"viability, T/C","second compound 0.316 µM, first compound 0.001 µM",103%
same,"viability, T/C",[29],99.5%
same,"viability, T/C",[30],95.8%
same,"viability, T/C",[9],81.4%
same,"viability, T/C",[10],89.9%
same,"viability, T/C","second compound 1 µM, first compound 0.000316 µM",80.8%
same,"viability, T/C","second compound 1 µM, first compound 0.001 µM",85.3%
same,"viability, T/C",[31],83.3%
same,"viability, T/C",[32],86.6%
same,"viability, T/C",[13],85.3%
same,"viability, T/C",[14],77.3%
same,"viability, T/C","second compound 3.16 µM, first compound 0.000316 µM",58.2%
same,"viability, T/C","second compound 3.16 µM, first compound 0.001 µM",70.1%
same,"viability, T/C",[33],62.8%
same,"viability, T/C",[34],67.3%
same,"viability, T/C",[17],59.3%
same,"viability, T/C",[18],62.2%
same,"viability, T/C","second compound 10 µM, first compound 0.000316 µM",39.7%
same,"viability, T/C","second compound 10 µM, first compound 0.001 µM",38.9%
same,"viability, T/C",[35],43.4%
same,"viability, T/C",[36],45.5%
same,"viability, T/C",[21],31.1%
same,"viability, T/C",[22],30.3%
